Assay [1] relates to BMSC (primary human bone marrow mesenchymal stromal cells). The assay is described as follows: absolute EC50 for viability; higher = less sensitive.
Assay [2] has the same test system. Kind of assay: drug sensitivity score (DSS); higher = more sensitive.

From the supplement of paper PMC9103864 come the findings set out here.

Each structure is given as a SMILES string.

As to `Cc1cc(Nc2cc(N3CCN(C)CC3)nc(/C=C/c3ccccc3)n2)n[nH]1` [ENMD-2076], the “absolute EC50 for viability” value in assay [1] came to 0.897 µM. In assay [2], this compound gave a drug sensitivity score of 11.5.

`CC[C@@](C)(Nc1ccnc(-c2c[nH]c3ncccc23)n1)C(=O)NCC(F)(F)F` [Decernotinib]: in assay [1], the “absolute EC50 for viability” value was > 10 µM. The compound also displayed a drug sensitivity score in assay [2] of 0.4.

Turning to `O=C(O)CC1CC(c2ccccc2)=NO1` (stereo not given) [VGX-1027], the “absolute EC50 for viability” value in assay [1] is > 10 µM. Also, the drug sensitivity score in assay [2] was -0.1.

With `C[C@]12CC[C@H](O)CC1=CC[C@@H]1[C@@H]2CC[C@]2(C)C(c3cccnc3)=CC[C@@H]12` [Abiraterone], the “absolute EC50 for viability” value in assay [1] is > 5 µM. In assay [2], the drug sensitivity score was 0.

For the compound `CN1CCC(CNc2ccc3ncc(-c4cccc(OC(F)(F)F)c4)n3n2)CC1` [SGI-1776], the “absolute EC50 for viability” value in assay [1] turned out to be 1.4 µM. The drug sensitivity score in assay [2] came out at 9.6.

For the compound `CO[C@@H]1[C@H](N(C)C(=O)c2ccccc2)C[C@H]2O[C@]1(C)n1c3ccccc3c3c4c(c5c6ccccc6n2c5c31)C(=O)NC4` [Midostaurin], in assay [1], the “absolute EC50 for viability” value worked out at 1.65 µM. Further, the drug sensitivity score in assay [2] worked out at 7.5.

Regarding `COc1cc(N2CCN(C)CC2)ccc1Nc1nccc(-c2cn(C)c3cnccc23)n1` [AZ191], the “absolute EC50 for viability” value in assay [1] came out at 2.71 µM. Also, in assay [2], the drug sensitivity score amounted to 8.1.

Take `Cc1ccccc1CN1C(=O)C2=C(CCN(Cc3ccccc3)C2)N2CCN=C12` [TIC10]: in assay [1], the “absolute EC50 for viability” value is > 25 µM. In assay [2], this compound registered a drug sensitivity score of 3.8.

Regarding `COc1cc(C)[nH]c(=O)c1CNC(=O)c1c(C)n([C@H](C)C2CCOCC2)c2ccccc12` [CPI-360], the “absolute EC50 for viability” value in assay [1] is > 10 µM. Also, the drug sensitivity score in assay [2] was determined as 0.

`CCc1cc2c(cc1N1CCC(N3CCOCC3)CC1)C(C)(C)c1[nH]c3cc(C#N)ccc3c1C2=O` [Alectinib]: the “absolute EC50 for viability” value in assay [1] was > 1 µM. This compound also came in with a drug sensitivity score in assay [2] of 0.

For `S=c1[nH]cnc2nc[nH]c12` [Mercaptopurine], the “absolute EC50 for viability” value in assay [1] is > 10 µM. For the same compound, the drug sensitivity score in assay [2] turned out to be 11.1.

For `C[C@]12CC[C@@H]3c4ccc(O)cc4C[C@@H](CCCCCCCCC[S+]([O-])CCCC(F)(F)C(F)(F)F)[C@H]3[C@@H]1CC[C@@H]2O` (stereo not given in full) [Fulvestrant], the “absolute EC50 for viability” value in assay [1] was > 1 µM. In assay [2], the drug sensitivity score was 0.

Regarding `CNC(=O)c1cc(COc2nnc(Nc3ccc(Cl)cc3)c3ccoc23)ccn1` [Telatinib], in assay [1], the “absolute EC50 for viability” value was > 10 µM. The compound also returned a drug sensitivity score in assay [2] of 4.2.

As for `Cc1[nH]nc(C(F)(F)F)c1Cc1sc2c(c1C(=O)N1C[C@](C)(O)CO1)c(=O)n(C)c(=O)n2C(C)C` [AZD3965], the “absolute EC50 for viability” value in assay [1] is > 1 µM. Moreover, the drug sensitivity score in assay [2] is 0.

Turning to `COc1c(C)cnc(Cn2cnc3c(Cl)nc(N)nc32)c1C` [BIIB021], the “absolute EC50 for viability” value in assay [1] was 0.449 µM. In addition, in assay [2], the drug sensitivity score came out at 12.

Turning to `COc1cccc2c1C(=O)c1c(O)c3c(c(O)c1C2=O)C[C@@](O)(C(=O)CO)C[C@@H]3O[C@H]1C[C@H](N)[C@@H](O)[C@H](C)O1` [Epirubicin], the “absolute EC50 for viability” value in assay [1] was found to be 0.249 µM. Moreover, the drug sensitivity score in assay [2] is 6.4.

`CCOC(=O)CCNc1cc(N2CCc3ccccc3CC2)nc(-c2ccccn2)n1` [GSK-J4]: the “absolute EC50 for viability” value in assay [1] worked out at 73 µM. For the same compound, in assay [2], the drug sensitivity score came to 2.8.

Consider `C[C@H]1CN(C2COC2)CCN1c1ccc(Nc2cc(-c3ccnc(N4CCn5c(cc6c5CC(C)(C)C6)C4=O)c3CO)cn(C)c2=O)nc1` [GDC-0853], for which the “absolute EC50 for viability” value in assay [1] was > 1 µM. In addition, the drug sensitivity score in assay [2] amounted to 0.

As to `COCC1(CO)C(=O)C2CCN1CC2` (stereo not given) [APR-246], the “absolute EC50 for viability” value in assay [1] is > 10 µM. Moreover, the drug sensitivity score in assay [2] was found to be 0.

For `CCN(CC)CCOc1ccc(C(=C(Cl)c2ccccc2)c2ccccc2)cc1` [Clomifene], the “absolute EC50 for viability” value in assay [1] is > 10 µM. The compound also displayed a drug sensitivity score in assay [2] of 0.9.

In the case of `N#CC[C@H](C1CCCC1)n1cc(-c2ncnc3[nH]ccc23)cn1` [Ruxolitinib], in assay [1], the “absolute EC50 for viability” value was > 10 µM. Besides, the drug sensitivity score in assay [2] was determined as 0.2.

As to `CC1(C)NC(=O)N(c2ccc([N+](=O)[O-])c(C(F)(F)F)c2)C1=O` [Nilutamide], in assay [1], the “absolute EC50 for viability” value is > 10 µM. The compound further had a drug sensitivity score in assay [2] of 0.

As for `CCc1cncnc1N1CCN(Cc2nc3ccc(C(F)(F)F)cc3[nH]2)CC1`, the “absolute EC50 for viability” value in assay [1] was > 10 µM. The drug sensitivity score in assay [2] amounted to 1.

Regarding `CC(C)C[C@H](NC(=O)[C@@H](COC(C)(C)C)NC(=O)[C@H](Cc1ccc(O)cc1)NC(=O)[C@H](CO)NC(=O)[C@H](Cc1c[nH]c2ccccc12)NC(=O)[C@H](Cc1cnc[nH]1)NC(=O)[C@@H]1CCC(=O)N1)C(=O)N[C@@H](CCCNC(=N)N)C(=O)N1CCC[C@H]1C(=O)NNC(N)=O` [Goserelin], the “absolute EC50 for viability” value in assay [1] was > 10 µM. In assay [2], this compound registered a drug sensitivity score of 0.

Take `CN(C)C[C@@H]1CCn2cc(c3ccccc32)C2=C(C(=O)NC2=O)c2cn(c3ccccc23)CCO1` [Ruboxistaurin]: the “absolute EC50 for viability” value in assay [1] amounted to 2.42 µM. The drug sensitivity score in assay [2] was 7.

For `CC(C)(C)c1nc(-c2cccc(NS(=O)(=O)c3c(F)cccc3F)c2F)c(-c2ccnc(N)n2)s1` [Dabrafenib], the “absolute EC50 for viability” value in assay [1] is > 2.5 µM. In assay [2], the drug sensitivity score amounted to 0.

On to `Cc1nc2cccc(N)c2c(=O)n1C1CCC(=O)NC1=O` (stereo not given) [CC122], for which, in assay [1], the “absolute EC50 for viability” value amounted to 9.93 µM. The compound further displayed a drug sensitivity score in assay [2] of 0.

On to `Cc1cn(-c2cc(NC(=O)c3ccc(C)c(Nc4nccc(-c5cnccn5)n4)c3)cc(C(F)(F)F)c2)cn1` [Radotinib], for which the “absolute EC50 for viability” value in assay [1] is > 10 µM. Besides, the drug sensitivity score in assay [2] was found to be 0.

On to `CC(C)Cn1cnc2c(N)nc3ccccc3c21` [Imiquimod], for which the “absolute EC50 for viability” value in assay [1] was > 2.5 µM. For the same compound, in assay [2], the drug sensitivity score is 0.

As for `CC(C)(C)Cn1c(N)nc2ccc(-c3[nH]c(C(C)(C)C)nc3-c3ccc(F)cc3)nc21` [Ralimetinib], the “absolute EC50 for viability” value in assay [1] is > 10 µM. The drug sensitivity score in assay [2] was found to be 0.7.

For `CCn1c(-c2nonc2N)nc2cnc(Oc3cccc(NC(=O)c4ccc(OCCN5CCOCC5)cc4)c3)cc21`, the “absolute EC50 for viability” value in assay [1] was > 10 µM. This compound returned a drug sensitivity score in assay [2] of 7.3.

As for `CC(C)(C)c1cc(NC(=O)Nc2ccc(Oc3ccnc4[nH]c(=O)cnc34)cc2F)n(-c2ccccc2)n1`, the “absolute EC50 for viability” value in assay [1] is > 25 µM. Also, the drug sensitivity score in assay [2] is 0.

In the case of `CC(O)c1cc(C(=O)N[C@@H](C)Cn2ccc(-c3ccc(C#N)c(Cl)c3)n2)n[nH]1` (stereo not given in full) [ODM-201], the “absolute EC50 for viability” value in assay [1] is > 2.5 µM. The compound further yielded a drug sensitivity score in assay [2] of 0.

For the compound `COc1cc2c(N3CCN(C(=O)Nc4ccc(OC(C)C)cc4)CC3)ncnc2cc1OCCCN1CCCCC1` [Tandutinib], in assay [1], the “absolute EC50 for viability” value was > 1 µM. Besides, the drug sensitivity score in assay [2] is 2.7.

For the compound `Cc1ccc(F)c(NC(=O)Nc2ccc(-c3cccc4[nH]nc(N)c34)cc2)c1` [Linifanib], in assay [1], the “absolute EC50 for viability” value was > 1 µM. For the same compound, the drug sensitivity score in assay [2] was found to be 0.

For `CCn1cc(-c2ccnc3[nH]c(-c4cccc(CN(C)C)c4)cc23)c(-c2ccc(NC(=O)N(C)C)cc2)n1`, in assay [1], the “absolute EC50 for viability” value is > 1 µM. Further, in assay [2], the drug sensitivity score came out at 1.5.

`CC[C@H](CC#N)OC(=O)N[C@@H](C)c1cccc(NC(=O)Nc2ccc(-c3cnco3)c(OC)c2)c1` [AVN944]: in assay [1], the “absolute EC50 for viability” value is > 10 µM. This compound registered a drug sensitivity score in assay [2] of 3.9.

On to `CC(=O)Nc1ccc(C(=O)Nc2ccccc2N)cc1` [Tacedinaline], for which, in assay [1], the “absolute EC50 for viability” value is > 1 µM. For the same compound, the drug sensitivity score in assay [2] is 0.

Regarding `COc1cc2ncnc(Nc3ccc(F)c(Cl)c3)c2cc1NC(=O)/C=C/CN1CCCCC1` [Dacomitinib], in assay [1], the “absolute EC50 for viability” value is > 1 µM. This compound also had a drug sensitivity score in assay [2] of 2.2.

In the case of `CNC(=O)c1ccc(N2C(=S)N(c3cnc(C#N)c(C(F)(F)F)c3)C(=O)C23CCC3)cc1F` [Apalutamide], the “absolute EC50 for viability” value in assay [1] is > 10 µM. The compound also gave a drug sensitivity score in assay [2] of 0.

Take `CCN1C(=O)CNc2ncc(-c3ccc(-c4nc[nH]n4)nc3C)nc21` [CC-115]: in assay [1], the “absolute EC50 for viability” value came to 2.86 µM. The drug sensitivity score in assay [2] is 6.9.

For `CN(C)C(=O)c1cc2cnc(Nc3ccc(N4CCNCC4)cn3)nc2n1C1CCCC1` [Ribociclib], the “absolute EC50 for viability” value in assay [1] was > 10 µM. Further, the drug sensitivity score in assay [2] amounted to 2.2.

With `CCNCCS(=O)(=O)NC[C@@]1(c2ccccc2)SC(NC(=O)C(C)(C)C)=NN1C(=O)C(C)(C)C` [Litronesib], in assay [1], the “absolute EC50 for viability” value was > 1 µM. The compound further showed a drug sensitivity score in assay [2] of 0.

For the compound `CC(=O)O[C@H]1C(=O)[C@@]2(C)[C@H]([C@H](OC(=O)c3ccccc3)[C@]3(O)C[C@H](OC(=O)[C@H](O)[C@@H](NC(=O)c4ccccc4)c4ccccc4)C(C)=C1C3(C)C)[C@]1(OC(C)=O)CO[C@@H]1C[C@@H]2O` [Paclitaxel], the “absolute EC50 for viability” value in assay [1] was > 1 µM. Moreover, in assay [2], the drug sensitivity score was found to be 2.7.

In the case of `C=C1C[C@@H]2CC[C@@]34C[C@H]5O[C@H]6[C@@H](O3)[C@H]3O[C@H](CC[C@@H]3O[C@H]6[C@H]5O4)CC(=O)C[C@@H]3[C@@H](OC)[C@@H](C[C@H](O)CN)O[C@H]3C[C@H]3O[C@@H](CC[C@@H]1O2)C[C@@H](C)C3=C` [Eribulin], in assay [1], the “absolute EC50 for viability” value was > 1 µM. For the same compound, the drug sensitivity score in assay [2] turned out to be 12.

For the compound `COCCNCc1ccc(-c2cc3nccc(Oc4ccc(NC(=S)NC(=O)Cc5ccc(F)cc5)cc4F)c3s2)nc1` [Glesatinib], the “absolute EC50 for viability” value in assay [1] is > 2.5 µM. Moreover, the drug sensitivity score in assay [2] turned out to be 5.1.

In the case of `C1=N/C2=N/c3ccc(OCCN4CCCC4)c(c3)COC/C=C/COCc3cccc(c3)C(=C1)N2` [Pacritinib], in assay [1], the “absolute EC50 for viability” value was found to be 3.67 µM. Besides, the drug sensitivity score in assay [2] came to 4.7.

With `Cn1cc(C[C@@H](N)C(=O)O)c2ccccc21` [1-methyl-D-tryptophan], the “absolute EC50 for viability” value in assay [1] is > 5 µM. In addition, in assay [2], the drug sensitivity score was 0.

`O=C1CN2Cc3c(ccc(Cl)c3Cl)N=C2N1` [Anagrelide]: the “absolute EC50 for viability” value in assay [1] is > 10 µM. The compound also displayed a drug sensitivity score in assay [2] of 0.

Regarding `COc1cc2ncnc(Nc3ccc(F)c(Cl)c3)c2cc1OCCCN1CCOCC1` [Gefitinib], the “absolute EC50 for viability” value in assay [1] was > 10 µM. In addition, the drug sensitivity score in assay [2] was 3.4.
